The data set relates to Caco-2 cell monolayers. Put plainly: Caco-2 cell monolayer Transwell model: formation and transport of hesperetin and its conjugates. Type of data set: in vitro ADME. The following applies: 120 minutes upon exposure to 10 μM (5 nmol) hesperetin added to the apical compartment. The method, then:
Caco-2 cell monolayers were grown on permeable filters that divide a two-compartment cell culture system. Although originally derived from a colonic adenoma carcinoma, differentiating Caco-2 cells are known to display morphological and biochemical properties of intestinal enterocytes including the formation of a polarized layer with expression of ABC transport proteins including Pgp, MRP1, MRP2 and BCRP and metabolizing enzymes.
Using the Caco-2 cell monolayer Transwell model in which the cells in the apical compartment were exposed to hesperetin, or combinations of hesperetin and other flavonoids, we studied the formation and transport of intestinal hesperetin conjugates, which were formed by the Caco-2 cells. 120 minutes upon exposure to 10 μM (5 nmol) hesperetin added to the apical compartment. […] These metabolites were identified as hesperetin 7-O-glucuronide and hesperetin 7-O-sulfate.
(In general: Passage across Caco-2 layers is used to estimate intestinal permeability.)

As to `COc1ccc([C@@H]2CC(=O)c3c(O)cc(O[C@@H]4O[C@H](C(=O)O)[C@@H](O)[C@H](O)[C@H]4O)cc3O2)cc1O` [hesperetin 7-O-glucuronide], the “amount of metabolite in apical compartment compared to basolateral” value is “detected at much higher amounts in the apical compartment compared to the basolateral”.
Regarding `COc1ccc([C@@H]2CC(=O)c3c(O)cc(OS(=O)(=O)O)cc3O2)cc1O` [hesperetin 7-O-sulfate], the “amount of metabolite in apical compartment compared to basolateral” value was “detected at much higher amounts in the apical compartment compared to the basolateral”.

The values are drawn from patent publication US8685935B2, “Use of flavonoids to increase the bioavailability of hesperetin” (Nestec S.A., priority 2009, dated 2014).
